{
  "source": "patent US11420994B2",
  "about": "“Carbon-monoxide-releasing molecules and therapeutic applications thereof” (GEORGIA STATE UNIVERSITY RESEARCH FOUNDATION, INC., priority 2016, dated 2022)",
  "key": {"[1]": {"assay": "MTT cytotoxicity test of mannose-modified reactants", "protocol": "The cytotoxicity test, MTT assay, was performed to define the concentration using TPCPD-M (57, 1 mM) and BCN-M (61, 1 mM) (FIG. 4)."}, "TNF-α [2]": {"tested_on": "TNF-α", "assay": "LPS-induced accumulation of TNF-α in RAW 264.7 culture supernatant (ELISA), two-component system", "format": "cell-based, mouse", "protocol": "RAW264.7 cell were seeded in 6-well plates and incubated overnight. Cells were then stimulated with LPS (10 mg/mL) for 1 h. TPCPD (1) and BCN (6a) (different concentrations) were added to well after 1 hr LPS treatment (same for all wells). As a control, the product (31) was used at same concentration as the anti-inflammation test to confirm that the suppression of TNF-α is result of CO instead of the reagent (or product) themselves (compounds 1, 6a, and 31). TNF-α secretion in the medium was measured with an eBioscience kit (mouse TNF-α ELISA kit, eBioscience, San Diego, Calif., USA).\nTNF-α is a major pro-inflammatory cytokine, mainly secreted from macrophages and dendritic cells. Its production is induced in vitro by stimulation with LPS. The accumulation of TNF-α was assessed by ELISA in the culture supernatant of the macrophage cell line, RAW 264.7 (FIG. 5). The cells were stimulated for 1 h and then co-treated by […] for 24 h. […] A 50% decrease of the LPS-induced accumulation of TNF-α was observed after co-treatment with TPCPD-M and BCN-M at the respective concentration of 1 mM+1 mM."}, "[3]": {"assay": "CO release kinetics by increase of fluorescence intensity", "format": "physicochemical", "protocol": "Compound 10a was dissolved indifferent solvents including CH2Cl2 (25° C.), CH3CN (25° C.), DMSO (25° C.), DMSO/PBS (10:1, 25° C.), DMSO/PBS (5:1, 25° C.), and DMSO/PBS (5:1, 37° C.) to give a final concentration of around 100 μM, and CO release was monitored by fluorescence intensity at 450 nm. Each experiment was repeated three times independently. The CO release rate (first order reaction rate) in DCM, CH3CN, DMSO, DMSO/PBS (10:1), DMSO/PBS (5:1), and DMSO/PBS (5:1, 37° C.) were different and their individual rate constant was calculated to be 2.3±0.2, 3.6±0.4, 6.6±0.6, 7.7±0.6, 11.0±1.4 and 22.4±3.2 h^−1, respectively. […] The CO release rate increased along with the polarity of the solvent."}, "[4]": {"assay": "Fluorescence properties of the cycloaddition products", "format": "physicochemical"}, "[5]": {"assay": "Intramolecular DAR in DMSO/PBS (7.4) at 37° C., time to completion", "format": "physicochemical", "protocol": "A solution of compound 10b in DMSO/PBS (7.4) was incubated at 37° C. for 3 hrs, after which the intramolecular DAR reaction finished. Then the reaction mixture was extracted with ethyl acetate, and the obtained organic layer was dried with anhydrous Na2SO4, filtered and concentrated. Thus obtained pale yellow solid was characterized by ^1H NMR as the intramolecular DAR product. ^1H NMR (400 MHz, CDCl3): δ 9.27 (d, J=7.2 Hz, 1H), 7.88 (d, J=8.0 Hz, 1H), 7.79 (d, J=8.0 Hz, 1H), 7.71 (t, J=7.6 Hz, 1H), 7.61-7.53 (m, 5H), 7.32 (t, J=8.0 Hz, 1H), 7.08 (s, 1H), 7.04 (d, J=7.2 Hz, 1H), 5.37-5.18 (m, 1H), 3.53 (t, J=6.0 Hz, 2H), 3.05 (t, J=6.0 Hz, 2H), 1.32 (d, J=6.8 Hz, 6H).\nA solution of compound 10b in DMSO/PBS (7.4) was incubated at 37° C. for 24 hrs, after which the intramolecular DAR reaction was finished. Then the reaction mixture was extracted with ethyl acetate, and the obtained organic layer was dried with anhydrous Na2SO4. Filtered and concentrated, the obtained pale yellow solid was characterized by ^1H NMR as the intramolecular DAR product. ^1H NMR (400 MHz, CDCl3) δ 9.12 (d, J=8.0 Hz, 1H), 7.83 (d, J=8.4 Hz, 1H), 7.73 (d, J=8.4 Hz, 1H), 7.68 (t, J=8.0 Hz, 1H), 7.63-7.54 (m, 3H), 7.36 (d, J=8.0 Hz, 2H), 7.24 (t, J=8.0 Hz, 1H), 6.32 (d, J=8.0 Hz, 1H), 5.29-5.26 (m, 1H), 3.57-3.46 (m, 2H), 3.05-2.94 (m, 2H), 2.12 (s, 3H), 1.33 (d, J=6.8 Hz, 6H). […]"}, "[6]": {"assay": "Determination of CO release rates (fluorescence or UV absorbance)", "format": "physicochemical", "settings": "DMSO/PBS (4:1) at 37° C.", "protocol": "For CO prodrugs with naphthalene scaffold, the CO release rate is easily done by monitoring the fluorescence intensity of the cyclized product. For the others, the CO release rate was determined by employing the UV absorbance difference between the prodrugs and the cyclized product."}, "RAW 264.7 cells": {"tested_on": "RAW 264.7 cells", "assay": "Cytotoxicity of CO prodrugs and inactive products (MTT)", "format": "cell-based, mouse", "settings": "24 h incubation", "protocol": "The toxicity of compound 10b and product of compound 10b (44b) after CO release were tested on RAW 264.7 cells, which is a mouse macrophage cell line used for anti-inflammation test. Different concentrations of 10b and 44b product were added into the cell culture media (Dulbecco's Modified Eagle's Medium supplemented with 10% heat inactivated fetal bovine serum and 1% penicillin-streptomycin). All samples with different concentrations of 10b or 44b product contained 1% DMSO in the cell culture media. RAW 264.7 cells were seeded in 96-well plate one day before the experiment. The cells were then incubated with the compound for 24 hours at 37° C. with 5% CO2. The cell viability was tested by MTT assay. Basically, after 24 hours of incubation, 0.5 mg/mL MTT (3-(4,5-Dimethylthiazol-2-yl)-2,5-Diphenyltetrazolium Bromide) was added into the cell culture and incubated for 4 hours. Thereafter, the supernatant was removed and 100 μL of DMSO were added into the wells containing cells. After shaking gently for 3 minutes, absorbance at 570 nm was read by plate reader.\n(§1) 10a-10d, and 100 with different release rates were chosen to test their inhibitory effect against lipopolysaccharide (LPS) induced TNF-α secretion in RAW 264.7 cells. […] This was followed by the treatment of LPS for another 1 h. Then the cell culture supernatants were subjected to ELISA assay for TNF-α levels."}, "[7]": {"assay": "CO release kinetics by increase of fluorescence intensity", "format": "physicochemical", "settings": "PBS with 1% DMSO; 1% of DMSO in PBS (pH = 7.4); read-out: t1/2 half-life for CO release (converted)"}, "TNF-α [8]": {"tested_on": "TNF-α", "assay": "TNF-α ELISA in LPS treated RAW 264.7 cells pre-treated with CO prodrug", "format": "cell-based, mouse", "settings": "pre-treated 5 h, then LPS 1 h", "protocol": "RAW 264.7 cells were seeded in the 48-well plate one day before the experiment.\nLPS was used to initialize the inflammatory response in RAW 264.7 cells and trigger the expression of cytokines. RAW 264.7 cells were pre-treated with different concentrations of 10b or 44b product for 5 hours. Thereafter, […] LPS was added with into the cell culture media. For TNF-α test, the cell culture supernatant was collected after 1 hour of LPS treatment. For IL-6 test, the cell culture supernatant was collected after 4 hours of LPS treatment. Cell culture without LPS treatment was used as control.\nas §1"}, "[9]": {"tested_on": "pulmonary arterial hypertension", "settings": "breathing CO gas (e.g., 150 ppm), after 16 weeks; cited from earlier work"}, "[10]": {"settings": "of the cycloaddition products 44a-44f and 100a"}},
  "note": "Where two headings read alike, the source gives them in different places.",
  "data": [
    {"molecule": "O=C(NCCOCCOCCOC1OC(CO)C(O)C(O)C1O)OCC1[C@H]2CCC#CCC[C@@H]12", "note": "(some centres unmarked) [BCN-M]", "values": [
      {"measurement": "cytotoxicity", "setting": "[1]; 24 h of treatment, within 1 mM", "result": "none of the compounds led to any cytotoxicity"},
      {"measurement": "decrease of the LPS-induced accumulation of TNF-α", "setting": "TNF-α [2]; co-treatment with TPCPD-M and BCN-M 1 mM+1 mM, 24 h", "result": 50, "unit": "%"},
      {"measurement": "inhibition of the LPS-induced accumulation of TNF-α", "setting": "TNF-α [2]; tested separately", "result": "do not lead to any inhibition"}
    ]},
    {"molecule": "NCC(=O)O.[C-]#[O+].[C-]#[O+].[C-]#[O+].[Cl][Ru]", "note": "[CORM3, reference compound]", "values": [
      {"measurement": "decrease in cell viability", "setting": "[1]; 1 mM", "result": 30, "unit": "%"}
    ]},
    {"molecule": "C#CCN(C)C(=O)C1=C2C(=C(c3ccccc3)C1=O)c1cccc3cccc2c13", "note": "[Compound 10a]", "values": [
      {"measurement": "k CO release rate", "setting": "[3]; CH2Cl2 at room temperature (25° C.)", "result": "2.3 ± 0.2", "unit": "h⁻¹"},
      {"measurement": "CO release rate constant (first order)", "setting": "[3]; CH3CN (25° C.)", "result": "3.6 ± 0.4", "unit": "h⁻¹"},
      {"measurement": "CO release rate constant (first order)", "setting": "[3]; DMSO (25° C.)", "result": "6.6 ± 0.6", "unit": "h⁻¹"},
      {"measurement": "CO release rate constant (first order)", "setting": "[3]; DMSO/PBS (5:1, 25° C.)", "result": "11.0 ± 1.4", "unit": "h⁻¹"},
      {"measurement": "CO release rate constant (first order)", "setting": "[3]; DMSO/PBS (10:1, 25° C.)", "result": "7.7 ± 0.6", "unit": "h⁻¹"},
      {"measurement": "k CO release rate", "setting": "[3]; DMSO/PBS (pH = 7.4) 5:1 at 37° C.", "result": "22.4 ± 3.2", "unit": "h⁻¹"},
      {"measurement": "λem emission wavelength", "setting": "[4]; [10]", "result": 450, "unit": "nm"},
      {"measurement": "λex excitation wavelength", "setting": "[4]; [10]", "result": 371, "unit": "nm"},
      {"measurement": "Φ quantum yield", "setting": "[4]; of the cycloaddition products 44a-44f and 100a in MeOH, quinine sulfate as the standard", "result": 0.21},
      {"measurement": "incubation time after which the intramolecular DAR reaction was finished", "setting": "[5]", "result": 5, "unit": "min"}
    ]},
    {"molecule": "C#CCOc1ccccc1C1=C2C(=C(C(=O)N3CCOCC3)C1=O)c1cccc3cccc2c13", "note": "[Compound 51]", "values": [
      {"measurement": "K CO release", "setting": "[6]", "result": "0.31 ± 0.003", "unit": "h⁻¹"},
      {"measurement": "incubation time after which the intramolecular DAR reaction was finished", "setting": "[5]", "result": 960, "unit": "min"}
    ]},
    {"molecule": "C#CCCN(CCOC1OC(CO)C(O)C(O)C1O)C(=O)C1=C2C(=C(c3ccccc3)C1=O)c1cccc3cccc2c13", "note": "(centres unmarked) [Compound 100]", "values": [
      {"measurement": "half-life", "setting": "[3]; DMSO/PBS 5:1, DMSO/PBS (pH = 7.4) 5:1 at 37° C., read-out: t1/2 half-life for CO release (converted)", "result": 2.1, "unit": "h"},
      {"measurement": "effect on cell viability", "setting": "RAW 264.7 cells", "result": "did not show any effect on cell viability at up to 50 μM"},
      {"measurement": "K CO release", "setting": "[6]", "result": "0.33 ± 0.01", "unit": "h⁻¹"},
      {"measurement": "half-life", "setting": "[7]", "result": 0.18, "unit": "h"}
    ]},
    {"molecule": "O=C1c2c(cc(-c3ccccc3)c3c2-c2cccc4cccc-3c24)CCN1CCOC1OC(CO)C(O)C(O)C1O", "note": "(centres unmarked) [Compound 100a]", "values": [
      {"measurement": "LPS-induced TNF-α expression / secretion", "setting": "TNF-α [8]", "result": "dose-dependently inhibited"},
      {"measurement": "effect on cell viability", "setting": "RAW 264.7 cells", "result": "did not show any effect on cell viability at up to 50 μM"}
    ]},
    {"molecule": "carbon monoxide [CO]", "values": [
      {"measurement": "decrease of pulmonary vascular resistance compared to the pre-therapy value", "setting": "[9]", "result": 20, "unit": "%"}
    ]}
  ]
}
